Measurements from US20250115577A1, “BCL-2 Inhibitors” (Eil Therapeutics, Inc., priority 2021, published 2025).

Columns and labels:
BCL-2 = BCL-2 (Homo sapiens (Human), UniProt P10415); experiment: BCL-2 TR-FRET Assay (primary PPI inhibition); type: binding; details: 60 min incubation, read-out: BCL2 IC50
Experimental: Example A. BCL-2 TR-FRET Assay (BPS Bioscience, #50222)
(§1) The following assay concentrations and times were used: 3 ng of BCL-2, 5 μL of 1:100 anti-His Tb-labeled donor, 5 μL of 1:100 Dye-labeled acceptor, 5 µL of 1:40 BCL-2 Peptide Ligand, and 2 μL of 200× test compound, with 60 min incubation time (final concentration of DMSO 0.5%). The results of the assay were read using a plate reader with the following parameters: TR FRET, 340ex/620 and 665em; 60 usec Delay; and 500 usec integration.
(§2) Instrumentation: CLARIOstar Plus (BMG LABTECH); Biomek FX for liquid handling (Beckman Coulter).

BCL-xL = BCL-xL (Homo sapiens (Human), UniProt Q07817); experiment: BCL-xL TR-FRET Assay (primary PPI inhibition); type: binding; details: 60 min incubation, read-out: BCLxL IC50
Sequence of BCL-xL (Q07817 whole entry): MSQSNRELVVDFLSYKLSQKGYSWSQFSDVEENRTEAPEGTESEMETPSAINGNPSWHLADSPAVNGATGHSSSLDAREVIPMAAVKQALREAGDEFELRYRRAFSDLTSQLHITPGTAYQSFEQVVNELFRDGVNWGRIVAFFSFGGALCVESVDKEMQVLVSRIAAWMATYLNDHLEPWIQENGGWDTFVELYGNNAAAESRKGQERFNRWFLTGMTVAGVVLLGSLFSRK
Experimental: Example B. BCL-xL TR-FRET Assay (BPS Bioscience, #50223)
as §1, with “used: 10.5” for “used: 3”, “of BCL-xL,” for “of BCL-2,”, “of 1:120” for “of 1:100”, “5 μL” for “5 µL”, “of 1:96 BCL-xL” for “of 1:40 BCL-2”, “Ligand,” for “Ligand, and”
as §2

RS4-11 cells = experiment: Cell viability assay (CellTiter-Glo), RS4-11; type: cell-based; details: Homo sapiens, RS4-11, 72 h, 3 days of incubation
Experimental: (§3) Example D. Cell Viability Assays (Cell lines HEK293, RS4-11, MOLT-4)
(§4) Cells were seeded at a density of 4000 cells per well in the 384-well clear bottom plate (Greiner Cat #781090) to the 45 μL total volume of either DMEM (PanEco, Cat #C420, for HEK293) or RPMI (PanEco, Cat #C330, for other cell lines) with 10% FBS(HyClone Cat #SV30160.03). Prior to adding compounds, the HEK293 cells were allowed to adhere overnight at 37° C. and 5% CO2. The 500× compounds solutions in DMSO(Sigma Cat #D2650) were dispersed into a 384-well compound plate (Diamond Well Plate, Axigen, Cat #P-384-120 SQ-C—S) including only DMSO control. The 1 μL aliquots of the 500× compounds from the compound plate were added to 49 μL of culture medium in the Dilution plate (Diamond Well Plate, Axigen, Cat #P-384-120 SQ-C—S), mixed and then the 5 μL aliquts of the 10× compound solutions were transferred to cells followed by centrifugation at 100 g for 1 min. Final DMSO concentration was 0.2%. After 3 days of incubation the 10 μL aliquots of CellTiter-Glo (Promega, CAT #G7572) were added to the cells, plate was centrifuged at 100 g for 1 min and the luminescence was measured on the CLARIOstar Plus (BMG LABTECH) instrument.
as §2

[1] = Cell viability assay (CellTiter-Glo), HEK293; type: cell-based; details: human, HEK293 cells, 3 days of incubation
Experimental: as §3, §4, §2

MOLT-4 cells = experiment: Cell viability assay (CellTiter-Glo), MOLT-4; type: cell-based; details: Homo sapiens, 72 h, 3 days of incubation
Experimental: as §3, §4, §2

[2] = system: caspase-3 and -7 activities in RS4-11 cells; experiment: Caspase-3/7 activation (Caspase-Glo 3/7) in RS4-11 cells; type: cell-based; details: Homo sapiens, 3.5 h, read-out: Cas-3/7 EC50
Experimental: Example E. Caspase-3/7 Activation
Assay Principle: The Caspase-Glo 3/7 Assay is homogeneous, luminescent assay that measures caspase-3 and -7 activities. The assay provides a luminogenic caspase-3/7 substrate, which contains the tetrapeptide sequence DEVD, in a reagent optimized for caspase activity.
Assay Procedure: Incubate RS4-11 (ATCC, CRL-1873) cells in the 384-well white plate (Corning, #3570) with varying concentrations of test compounds for 3.5 h in a humidified incubator at 37° C. and 5% CO2 […]. Add 15 μL of the Caspase-Glo (Promega, #8212) reagent to each well and to incubate the plate for 30 min at rt. Read on the CLARIOstar Plus (BMG LABTECH) instrument.
as §2

Sequence of BCL-2 (P10415 whole entry): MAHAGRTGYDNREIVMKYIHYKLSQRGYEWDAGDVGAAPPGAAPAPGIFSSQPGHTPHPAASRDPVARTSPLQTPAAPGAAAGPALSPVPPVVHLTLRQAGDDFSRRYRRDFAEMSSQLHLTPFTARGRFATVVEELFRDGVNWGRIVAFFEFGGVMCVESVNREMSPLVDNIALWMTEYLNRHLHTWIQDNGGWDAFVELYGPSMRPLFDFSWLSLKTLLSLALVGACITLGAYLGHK

SMILES: COc1cccc(CN(C(=O)c2cc(-c3cc([N+](=O)[O-])ccc3C(=O)N3Cc4ccccc4C[C@H]3CN3CCOCC3)n(C)c2C)c2ccc(O)cc2)c1C [Compound 61, N-(4-hydroxyphenyl)-N-[(3-methoxy-2-methyl-phenyl)methyl]-1,2-dimethyl-5-[2-[(3S)-3-(morpholinomethyl)-3,4-dihydro-1H-isoquinoline-2-carbonyl]-5-nitro-phenyl]pyrrole-3-carboxamide]
- IC50 (BCL-2): ≤ 5 nM
- IC50 (BCL-xL): > 5000 nM
- CC50 (RS4-11 cells): ≤ 100 nM
- CC50 at 3 days [1]: > 25000 nM
- CC50 (MOLT-4 cells): ≤ 5000 nM
- EC50 [2]: 200 to 500 nM

SMILES: COc1ccccc1CN(C(=O)c1cc(-c2cc(C#N)ccc2C(=O)N2Cc3ccccc3C[C@H]2CN2CCOCC2)n(C)c1C)c1ccc(O)cc1 [Compound 55, 5-[5-cyano-2-[(3S)-3-(morpholinomethyl)-3,4-dihydro-1H-isoquinoline-2-carbonyl]phenyl]-N-(4-hydroxyphenyl)-N-[(2-methoxyphenyl)methyl]-1,2-dimethyl-pyrrole-3-carboxamide]
- IC50 (BCL-2): 5 to 10 nM
- IC50 (BCL-xL): ≤ 2000 nM
- CC50 (RS4-11 cells): 100 to 200 nM
- CC50 at 3 days [1]: > 25000 nM
- CC50 (MOLT-4 cells): ≤ 5000 nM
- EC50 [2]: 200 to 500 nM

SMILES: COc1cccc(CN(C(=O)c2cc(-c3cc(Cl)c(OC(F)F)cc3C(=O)N3Cc4ccccc4C[C@H]3CN3CCOCC3)n(C)c2C)c2ccc(Cl)cc2)c1C [Compound 32, 5-[5-chloro-4-(difluoromethoxy)-2-[(3S)-3-(morpholinomethyl)-3,4-dihydro-1H-isoquinoline-2-carbonyl]phenyl]-N-(4-chlorophenyl)-N-[(3-methoxy-2-methyl-phenyl)methyl]-1,2-dimethyl-pyrrole-3-carboxamide]
- IC50 (BCL-2): > 50 nM
- IC50 (BCL-xL): 2000 to 5000 nM
- CC50 (RS4-11 cells): > 200 nM
- CC50 at 3 days [1]: > 25000 nM
- CC50 (MOLT-4 cells): ≤ 5000 nM
- EC50 [2]: > 500 nM

SMILES: COc1cc(-c2cc(C(=O)N(Cc3cccc(OC)c3C)c3ccc(O)cc3)c(C)n2C)c(C(=O)N2Cc3ccccc3C[C@H]2CN2CCOCC2)cc1C#N [Compound 58, 5-[4-cyano-5-methoxy-2-[(3S)-3-(morpholinomethyl)-3,4-dihydro-1H-isoquinoline-2-carbonyl]phenyl]-N-(4-hydroxyphenyl)-N-[(3-methoxy-2-methyl-phenyl)methyl]-1,2-dimethyl-pyrrole-3-carboxamide]
- IC50 (BCL-2): > 50 nM
- IC50 (BCL-xL): 2000 to 5000 nM
- CC50 (RS4-11 cells): > 200 nM
- CC50 at 3 days [1]: > 25000 nM
- CC50 (MOLT-4 cells): ≤ 5000 nM
- EC50 [2]: > 500 nM

SMILES: COc1cccc(CN(C(=O)c2cc(-c3cc(Cl)c(F)cc3C(=O)N3Cc4ccccc4C[C@H]3CN3CCOCC3)n(C)c2C)c2ccc(O)cc2)c1C [Compound 27, 5-[5-chloro-4-fluoro-2-[(3S)-3-(morpholinomethyl)-3,4-dihydro-1H-isoquinoline-2-carbonyl]phenyl]-N-(4-hydroxyphenyl)-N-[(3-methoxy-2-methyl-phenyl)methyl]-1,2-dimethyl-pyrrole-3-carboxamide]
- IC50 (BCL-2): 10 to 50 nM
- IC50 (BCL-xL): 2000 to 5000 nM
- CC50 (RS4-11 cells): 100 to 200 nM
- CC50 at 3 days [1]: > 25000 nM
- CC50 (MOLT-4 cells): ≤ 5000 nM
- EC50 [2]: 200 to 500 nM

SMILES: COc1ccccc1CN(C(=O)c1cc(-c2cc(Cl)ccc2C(=O)N2Cc3ccccc3C[C@H]2CN2CCOCC2)n(C)c1C)c1ccc2[nH]ncc2c1 [Compound 69, 5-[5-chloro-2-[(3S)-3-(morpholinomethyl)-3,4-dihydro-1H-isoquinoline-2-carbonyl]phenyl]-N-(1H-indazol-5-yl)-N-[(2-methoxyphenyl)methyl]-1,2-dimethyl-pyrrole-3-carboxamide]
- IC50 (BCL-2): 10 to 50 nM
- IC50 (BCL-xL): > 5000 nM
- CC50 (RS4-11 cells): > 200 nM
- CC50 at 3 days [1]: > 25000 nM
- CC50 (MOLT-4 cells): > 10000 nM
- EC50 [2]: > 500 nM

SMILES: Cc1c(C(=O)N(Cc2ccccc2C#N)c2ccc(O)cc2)cc(-c2cc([N+](=O)[O-])ccc2C(=O)N2Cc3ccccc3C[C@H]2CN2CCOCC2)n1C [Compound 62, N-[(2-cyanophenyl)methyl]-N-(4-hydroxyphenyl)-1,2-dimethyl-5-[2-[(3S)-3-(morpholinomethyl)-3,4-dihydro-1H-isoquinoline-2-carbonyl]-5-nitro-phenyl]pyrrole-3-carboxamide]
- IC50 (BCL-2): ≤ 5 nM
- IC50 (BCL-xL): > 5000 nM
- CC50 (RS4-11 cells): ≤ 100 nM
- CC50 at 3 days [1]: > 25000 nM
- CC50 (MOLT-4 cells): ≤ 5000 nM
- EC50 [2]: ≤ 200 nM

SMILES: COc1cccc(CN(C(=O)c2cc(-c3cc(C#N)ccc3C(=O)N3Cc4ccccc4C[C@H]3CN3CCOCC3)n(C)c2C)c2ccc(O)cc2)c1C [Compound 57, 5-[5-cyano-2-[(3S)-3-(morpholinomethyl)-3,4-dihydro-1H-isoquinoline-2-carbonyl]phenyl]-N-(4-hydroxyphenyl)-N-[(3-methoxy-2-methyl-phenyl)methyl]-1,2-dimethyl-pyrrole-3-carboxamide]
- IC50 (BCL-2): 5 to 10 nM
- IC50 (BCL-xL): 2000 to 5000 nM
- CC50 (RS4-11 cells): ≤ 100 nM
- CC50 at 3 days [1]: > 25000 nM
- CC50 (MOLT-4 cells): ≤ 5000 nM
- EC50 [2]: ≤ 200 nM

SMILES: COc1cccc(CN(C(=O)c2cc(-c3ccc(OC(F)F)cc3C(=O)N3Cc4ccccc4C[C@H]3CN3CCOCC3)n(C)c2C)c2ccc(Cl)cc2)c1C [Compound 12, N-(4-chlorophenyl)-5-[4-(difluoromethoxy)-2-[(3S)-3-(morpholinomethyl)-3,4-dihydro-1H-isoquinoline-2-carbonyl]phenyl]-N-[(3-methoxy-2-methyl-phenyl)methyl]-1,2-dimethyl-pyrrole-3-carboxamide]
- IC50 (BCL-2): > 50 nM
- IC50 (BCL-xL): 2000 to 5000 nM
- CC50 (RS4-11 cells): > 200 nM
- CC50 at 3 days [1]: > 25000 nM
- CC50 (MOLT-4 cells): ≤ 5000 nM
- EC50 [2]: > 500 nM

SMILES: COc1cc(-c2cc(C(=O)N(Cc3ccccc3OC)c3ccc(Cl)cc3)c(C)n2C)c(C(=O)N2Cc3ccccc3C[C@H]2CN2CCOCC2)cc1C#N [Compound 56, N-(4-chlorophenyl)-5-[4-cyano-5-methoxy-2-[(3S)-3-(morpholinomethyl)-3,4-dihydro-1H-isoquinoline-2-carbonyl]phenyl]-N-[(2-methoxyphenyl)methyl]-1,2-dimethyl-pyrrole-3-carboxamide]
- IC50 (BCL-2): > 50 nM
- IC50 (BCL-xL): 2000 to 5000 nM
- CC50 (RS4-11 cells): > 200 nM
- CC50 at 3 days [1]: ≤ 10000 nM
- CC50 (MOLT-4 cells): ≤ 5000 nM
- EC50 [2]: > 500 nM

SMILES: COc1cccc(CN(C(=O)c2cc(-c3cc(C(N)=O)ccc3C(=O)N3Cc4ccccc4C[C@H]3CN3CCOCC3)n(C)c2C)c2ccc(O)cc2)c1C [Compound 64, 5-[5-carbamoyl-2-[(3S)-3-(morpholinomethyl)-3,4-dihydro-1H-isoquinoline-2-carbonyl]phenyl]-N-(4-hydroxyphenyl)-N-[(3-methoxy-2-methyl-phenyl)methyl]-1,2-dimethyl-pyrrole-3-carboxamide]
- IC50 (BCL-2): ≤ 5 nM
- IC50 (BCL-xL): > 5000 nM
- CC50 (RS4-11 cells): ≤ 100 nM
- CC50 at 3 days [1]: > 25000 nM
- CC50 (MOLT-4 cells): > 10000 nM
- EC50 [2]: > 500 nM
